{
  "source": "patent US20170360795A1",
  "about": "“TREATMENT OF CANCERS USING PI3 KINASE ISOFORM MODULATORS” (INFINITY PHARMACEUTICALS, INC., priority 2013, published 2017)",
  "key": {"[1]": {"system": "phospho-BTK in SU-DHL-4", "test": "phospho-BTK in DLBCL cells", "assay_type": "cell-based", "conditions": "SU-DHL-4 cells"}, "[2]": {"system": "SU-DHL-6", "test": "cellular growth inhibition assay (72 hour CTG), DLBCL", "assay_type": "cell-based", "conditions": "SU-DHL-6 (GCB)"}, "[3]": {"system": "CLL/SLL", "test": "Clinical activity in CLL/SLL patients", "assay_type": "in vivo, human"}, "[4]": {"system": "Sézary syndrome", "test": "clinical activity in Sézary syndrome", "assay_type": "in vivo, human", "conditions": "60 mg BID, 28 days cycle", "description": "Number of Sézary cells were determined by following conventional procedures using flowcytometry. […] CT response was assessed in terms of Sum of Product Diameters (SPD). […] Finally, mSWAT scores were determined using conventional procedures well-known in the art (see, e.g., Olsen et al., Journal of Clinical Oncology, available from http://jco.ascopubs.org/cgi/doi/10.1200.JCO.2010.32.0630 (2011))."}, "[5]": {"test": "in vivo rat micronucleus assay"}, "[6]": {"system": "OCI-LY-8", "test": "cellular growth inhibition assay, DLBCL", "assay_type": "cell-based"}, "[7]": {"system": "circulating CLL cells", "test": "Circulating CLL cells in treated CLL patients", "assay_type": "in vivo, human", "conditions": "25 mg BID"}, "[8]": {"system": "pPRAS40 and pS6 in CTCL cells", "test": "western blotting in CTCL cell lines", "assay_type": "cell-based", "description": "(§1) MJ and HuT78 cells were grown in IMDM 20% FBS, and HH cells were grown in RPMI 10% FBS.\nCells were washed with fresh media and lysed by adding 1x SDS sample buffer, followed by sonication. After heating the sample at 95-100° C. for 5 minutes and cooling on ice, the sample was microcentrifuged and run on SDS-PAGE. The resulting samples were electrotransfereed to nitrocellulose or PVDF membrane. After washing, the membrane was incubated in blocking buffer for 1 hour at room temperature, followed by washing with TBS/T. The membrane and primary antibodies are then inclubated overnight at 4° C. The membrane was again washed with TBS/T, and incubated with appropriate HRP-conjugated secondary antibodies. For biotinylated primary antibodies, the membrane was incubated with HRP-Streptavidin in milk. Upon completion of the incubation, the membrane was washed with TBS/T and was subjected to detection using LumiGLO®."}, "[9]": {"system": "WSU-DLCL-2", "test": "cellular growth inhibition assay, DLBCL", "assay_type": "cell-based", "conditions": "WSU-DLCL-2 (GCB)"}, "[10]": {"system": "CD38/CD69 positive CLL cells", "test": "phosphospecific flow cytometry of circulating CLL cells in patients", "assay_type": "in vivo, human", "conditions": "25 mg BID", "source_text": "In order to characterize the surface phenotype of the cells present in CLL patients, antibodies against, among others, CD38 and CD69 were included in the panel, and the samples were subjected to phosphor-specific flow cytometry."}, "[11]": {"test": "clinical study in healthy adult subjects: safety", "assay_type": "in vivo, human"}, "[12]": {"target": "PI3K δ (Homo sapiens, UniProt O00329)", "sequence (O00329 whole entry)": "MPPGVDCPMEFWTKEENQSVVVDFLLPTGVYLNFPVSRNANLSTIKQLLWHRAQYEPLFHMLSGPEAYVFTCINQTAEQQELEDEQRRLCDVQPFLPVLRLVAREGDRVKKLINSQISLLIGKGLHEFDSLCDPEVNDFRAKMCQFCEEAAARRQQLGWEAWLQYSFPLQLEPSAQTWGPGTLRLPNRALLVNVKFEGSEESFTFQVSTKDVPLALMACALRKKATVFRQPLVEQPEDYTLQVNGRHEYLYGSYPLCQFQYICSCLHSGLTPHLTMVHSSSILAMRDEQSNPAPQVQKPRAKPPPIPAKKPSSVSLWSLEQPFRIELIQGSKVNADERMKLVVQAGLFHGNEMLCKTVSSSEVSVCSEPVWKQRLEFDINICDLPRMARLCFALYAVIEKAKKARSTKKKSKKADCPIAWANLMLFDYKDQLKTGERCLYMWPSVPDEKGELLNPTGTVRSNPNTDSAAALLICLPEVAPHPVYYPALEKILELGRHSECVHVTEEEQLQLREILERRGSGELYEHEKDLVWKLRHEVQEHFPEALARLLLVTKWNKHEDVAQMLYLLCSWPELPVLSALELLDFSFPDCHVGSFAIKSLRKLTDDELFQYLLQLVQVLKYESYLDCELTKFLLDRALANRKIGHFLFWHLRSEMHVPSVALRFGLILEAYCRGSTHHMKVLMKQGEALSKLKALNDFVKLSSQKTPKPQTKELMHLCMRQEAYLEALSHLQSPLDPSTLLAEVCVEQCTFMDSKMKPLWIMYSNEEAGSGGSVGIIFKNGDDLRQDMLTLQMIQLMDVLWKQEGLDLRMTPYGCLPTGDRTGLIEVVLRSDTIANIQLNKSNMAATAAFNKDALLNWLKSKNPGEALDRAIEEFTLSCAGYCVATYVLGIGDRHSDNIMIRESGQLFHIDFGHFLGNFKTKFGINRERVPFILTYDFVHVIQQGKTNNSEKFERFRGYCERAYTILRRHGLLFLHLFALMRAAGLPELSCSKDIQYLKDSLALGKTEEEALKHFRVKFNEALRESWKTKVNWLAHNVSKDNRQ", "sequence (P27986 whole entry partner)": "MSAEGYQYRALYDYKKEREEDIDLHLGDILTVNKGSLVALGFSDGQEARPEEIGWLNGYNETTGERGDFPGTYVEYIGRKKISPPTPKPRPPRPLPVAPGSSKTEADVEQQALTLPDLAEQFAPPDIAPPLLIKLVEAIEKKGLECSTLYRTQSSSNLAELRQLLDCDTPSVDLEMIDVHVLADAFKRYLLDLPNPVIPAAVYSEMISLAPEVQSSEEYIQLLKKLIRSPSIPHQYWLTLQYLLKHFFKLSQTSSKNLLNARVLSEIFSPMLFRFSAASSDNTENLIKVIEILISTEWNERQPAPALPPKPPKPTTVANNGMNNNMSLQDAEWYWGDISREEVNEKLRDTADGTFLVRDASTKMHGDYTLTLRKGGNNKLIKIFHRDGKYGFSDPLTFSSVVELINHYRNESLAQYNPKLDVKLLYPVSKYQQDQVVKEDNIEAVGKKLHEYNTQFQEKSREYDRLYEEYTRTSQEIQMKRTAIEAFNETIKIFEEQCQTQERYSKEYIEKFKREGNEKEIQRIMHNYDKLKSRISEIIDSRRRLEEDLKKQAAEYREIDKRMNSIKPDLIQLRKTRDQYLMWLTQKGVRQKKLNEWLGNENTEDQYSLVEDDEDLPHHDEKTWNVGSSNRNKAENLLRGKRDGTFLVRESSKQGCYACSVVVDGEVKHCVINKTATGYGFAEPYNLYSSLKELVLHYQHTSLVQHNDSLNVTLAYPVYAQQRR", "test": "PK/PD: plasma concentration versus PI3K-δ inhibition", "assay_type": "in vivo", "conditions": "PK/PD in patients"}, "[13]": {"system": "HH cells", "test": "CTCL cytotoxicity, 72 hours", "assay_type": "cell-based", "description": "as §1"}, "[14]": {"system": "phospho-AKT in OCI-LY-8 cells", "test": "phospho-AKT after BCR crosslinking", "assay_type": "cell-based", "source_text": "These biochemical findings indicate a mechanistic rationale for combination of PI3K-δ,γ and BTK inhibition."}, "[15]": {"target": "T1, human P-glycoprotein (Homo sapiens, UniProt P08183)", "T1 construct": "assessed in vitro using Caco-2 cell monolayers; endogenous in cells; host or cells: Caco-2", "T1 sequence (P08183 whole entry)": "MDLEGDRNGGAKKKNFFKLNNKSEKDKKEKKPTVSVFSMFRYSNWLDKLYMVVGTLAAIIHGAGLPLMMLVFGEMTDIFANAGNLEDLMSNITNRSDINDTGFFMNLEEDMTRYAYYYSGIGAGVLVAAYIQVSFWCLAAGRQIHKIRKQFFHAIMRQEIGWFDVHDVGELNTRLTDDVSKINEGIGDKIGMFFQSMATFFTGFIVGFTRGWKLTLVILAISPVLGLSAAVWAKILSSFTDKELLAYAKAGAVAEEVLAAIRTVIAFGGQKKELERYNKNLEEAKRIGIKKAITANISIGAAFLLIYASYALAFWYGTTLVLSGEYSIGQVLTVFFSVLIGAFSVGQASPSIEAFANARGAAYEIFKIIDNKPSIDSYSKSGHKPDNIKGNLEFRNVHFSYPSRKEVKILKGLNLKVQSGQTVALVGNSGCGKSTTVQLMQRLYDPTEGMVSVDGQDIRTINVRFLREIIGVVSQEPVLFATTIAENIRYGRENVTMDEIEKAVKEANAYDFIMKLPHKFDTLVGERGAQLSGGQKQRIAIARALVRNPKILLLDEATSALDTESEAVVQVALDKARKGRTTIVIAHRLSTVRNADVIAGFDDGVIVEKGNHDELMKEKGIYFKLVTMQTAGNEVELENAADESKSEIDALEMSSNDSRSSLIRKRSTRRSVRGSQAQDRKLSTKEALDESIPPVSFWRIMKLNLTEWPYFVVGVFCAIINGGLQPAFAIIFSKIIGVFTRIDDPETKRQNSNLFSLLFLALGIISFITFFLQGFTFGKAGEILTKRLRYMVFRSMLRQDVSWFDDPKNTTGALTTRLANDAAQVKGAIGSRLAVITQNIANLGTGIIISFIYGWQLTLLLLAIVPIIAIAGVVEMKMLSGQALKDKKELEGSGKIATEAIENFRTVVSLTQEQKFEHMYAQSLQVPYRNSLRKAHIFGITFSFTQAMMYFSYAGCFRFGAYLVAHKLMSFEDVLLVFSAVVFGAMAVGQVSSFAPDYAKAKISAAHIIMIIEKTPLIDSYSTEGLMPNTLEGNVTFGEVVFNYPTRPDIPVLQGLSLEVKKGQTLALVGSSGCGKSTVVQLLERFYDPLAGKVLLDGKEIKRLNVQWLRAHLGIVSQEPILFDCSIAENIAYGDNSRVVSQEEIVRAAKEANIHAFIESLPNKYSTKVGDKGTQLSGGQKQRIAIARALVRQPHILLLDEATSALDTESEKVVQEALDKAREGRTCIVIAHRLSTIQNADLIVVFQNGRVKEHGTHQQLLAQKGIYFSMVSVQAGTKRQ", "test": "Caco-2 cell monolayers: membrane permeability and P-glycoprotein interaction", "assay_type": "in vitro ADME"}, "[16]": {"target": "PI3K γ (Homo sapiens, UniProt P48736)", "sequence (P48736 whole entry)": "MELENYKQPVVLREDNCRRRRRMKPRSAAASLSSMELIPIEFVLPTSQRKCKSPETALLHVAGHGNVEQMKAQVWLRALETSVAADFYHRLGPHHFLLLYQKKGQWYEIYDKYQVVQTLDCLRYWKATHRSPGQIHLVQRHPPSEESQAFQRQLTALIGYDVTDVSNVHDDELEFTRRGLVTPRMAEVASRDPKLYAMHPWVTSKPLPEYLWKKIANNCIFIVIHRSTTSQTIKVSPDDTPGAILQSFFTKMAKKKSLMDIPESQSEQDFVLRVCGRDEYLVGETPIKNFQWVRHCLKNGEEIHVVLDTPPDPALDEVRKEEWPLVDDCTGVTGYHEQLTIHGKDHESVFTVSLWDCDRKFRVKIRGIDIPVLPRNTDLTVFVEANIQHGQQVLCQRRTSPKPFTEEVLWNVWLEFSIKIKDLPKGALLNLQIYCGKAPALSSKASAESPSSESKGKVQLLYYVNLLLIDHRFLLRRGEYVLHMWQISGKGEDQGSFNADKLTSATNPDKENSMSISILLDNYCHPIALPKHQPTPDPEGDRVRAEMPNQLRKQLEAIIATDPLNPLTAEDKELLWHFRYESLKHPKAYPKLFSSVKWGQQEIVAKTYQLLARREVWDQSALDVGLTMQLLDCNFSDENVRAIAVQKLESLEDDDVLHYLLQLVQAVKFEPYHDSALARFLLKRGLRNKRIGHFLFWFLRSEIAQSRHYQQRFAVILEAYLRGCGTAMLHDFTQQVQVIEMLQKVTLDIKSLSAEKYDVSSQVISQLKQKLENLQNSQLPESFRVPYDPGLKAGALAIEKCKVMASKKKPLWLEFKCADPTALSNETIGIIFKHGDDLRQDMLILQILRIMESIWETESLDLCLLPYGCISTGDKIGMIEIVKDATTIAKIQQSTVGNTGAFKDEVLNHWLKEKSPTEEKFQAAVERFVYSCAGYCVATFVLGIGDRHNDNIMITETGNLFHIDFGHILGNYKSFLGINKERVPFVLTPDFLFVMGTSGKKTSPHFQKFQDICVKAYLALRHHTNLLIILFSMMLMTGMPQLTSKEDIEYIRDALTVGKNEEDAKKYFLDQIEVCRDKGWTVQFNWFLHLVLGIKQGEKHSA", "test": "PK/PD: plasma concentration versus PI3K-γ inhibition", "assay_type": "in vivo", "conditions": "PK/PD in patients"}, "[17]": {"system": "migration of CLL cells", "test": "chemotaxis assay", "assay_type": "cell-based", "conditions": "n=8", "source_text": "(FIGS. 35 and 36). […] In addition, this direct inhibitory effect on CLL cells in the lymph nodes could lead to rapid and prolonged responses in cancer patients."}, "[18]": {"system": "SU-DHL-4", "test": "cellular growth inhibition assay (72 hour CTG), DLBCL", "assay_type": "cell-based", "conditions": "SU-DHL-4 (GCB)"}, "[19]": {"system": "diluted whole blood stimulated with LPS", "test": "Cytokine production from diluted whole blood stimulated with LPS", "assay_type": "cell-based"}, "[20]": {"target": "hERG channel (Homo sapiens, UniProt Q12809)", "test": "In vitro hERG assay"}, "[21]": {"conditions": "multiple doses for 2 weeks (n=36)"}},
  "note": "Entries after “also recorded” stand apart in the source; their conditions may differ.",
  "data": [
    {"smiles": "C[C@H](Nc1ncnc2[nH]cnc12)c1cc2cccc(Cl)c2c(=O)n1-c1ccccc1", "note": "[Compound 292]", "values": [
      {"measurement": "level of pBTK (phospho-BTK)", "setting": "[1]", "result": "not modulated"},
      {"measurement": "sensitivity in cellular growth inhibition assay", "setting": "[2]", "result": "more sensitive; also recorded: nanomolar (nM) range"},
      {"measurement": "clinical activity", "setting": "[3]", "result": "rapid onset of clinical activity"},
      {"measurement": "CT response, Sum of Product Diameters (SPD)", "setting": "[4]", "result": "reduction in SPD"},
      {"measurement": "mSWAT scores", "setting": "[4]", "result": "reduction in mSWAT scores"},
      {"measurement": "number of Sézary cells in peripheral blood", "setting": "[4]; flowcytometry", "result": "substantial reduction"},
      {"measurement": "direct adverse effect in micronucleus assay", "setting": "[5]", "result": "no direct adverse effect"},
      {"measurement": "IC50, cellular growth inhibition", "setting": "[6]; OCI-LY-8 (GCB), without BCR crosslinking", "result": "low micromolar (μM) range"},
      {"measurement": "sensitivity in cellular growth inhibition assay", "setting": "[6]; OCI-LY-8 with BCR crosslinking", "result": "nM range"},
      {"measurement": "dose limiting toxicity", "setting": "15 mg BID cohort", "result": "Grade 4 neutropenia"},
      {"measurement": "new Grade >3 neutropenia", "setting": "20 patients, 8-50 mg BID", "result": "6 (30%) n (%)"},
      {"measurement": "new Grade >3 thrombocytopenia", "setting": "20 patients, 8-50 mg BID", "result": "1 (5%) n (%)"},
      {"measurement": "patients with AEs Grade >3", "setting": "20 patients, 8-50 mg BID", "result": "7 (35%) n (%)"},
      {"measurement": "patients with adverse events (AEs)", "setting": "20 patients, 8-50 mg BID", "result": "13 (65%) n (%)"},
      {"measurement": "Grade 3 ALT/AST elevations", "setting": "20 patients, MM patient, onset 6 weeks after initiation of dosing", "result": "1 (5%) n (%)"},
      {"measurement": "CD38/CD69 double positive circulating CLL cells", "setting": "[7]", "result": "reduction"},
      {"measurement": "CD38 positive circulating CLL cells", "setting": "[7]", "result": "reduction"},
      {"measurement": "CD69 positive circulating CLL cells", "setting": "[7]", "result": "reduction"},
      {"measurement": "level of pPRAS40", "setting": "[8]; HH, HuT78 and MJ cells, western blotting", "result": "dose dependently reduced"},
      {"measurement": "pS6", "setting": "[8]; resistant MJ cells", "result": "not modulated"},
      {"measurement": "IC50, cellular growth inhibition", "setting": "[9]", "result": "low micromolar (μM) range"},
      {"measurement": "CD38 positive, CD69 positive and CD38/CD69 double positive circulating CLL cells", "setting": "[10]", "result": "significant reductions"},
      {"measurement": "deaths and serious adverse events (SAEs)", "setting": "[11]; healthy subjects", "result": "no deaths and no serious adverse events"},
      {"measurement": "headache (non-procedural AE)", "setting": "[11]; [21]", "result": 8, "unit": "%"},
      {"measurement": "myalgia (non-procedural AE)", "setting": "[11]; [21]", "result": 6, "unit": "%"},
      {"measurement": "nasopharyngitis (non-procedural AE)", "setting": "[11]; [21]", "result": 6, "unit": "%"},
      {"measurement": "largest change from baseline in QTcF", "setting": "[11]; serial ECGs, all study groups", "result": 37, "unit": "ms"},
      {"measurement": "subjects with QTcF greater than 500 msec", "setting": "[11]; serial ECGs, all study groups", "result": "No subject"},
      {"measurement": "tolerability", "setting": "[11]; single doses up to 30 mg, multiple doses up to 10 mg daily for 14 days", "result": "well tolerated; also recorded: well-tolerated"},
      {"measurement": "dose at which complete inhibition of PI3K-δ can be achieved", "setting": "[12]", "result": "≥ 15", "unit": "mg BID"},
      {"measurement": "cytotoxicity, sensitivity", "setting": "[13]", "result": "more sensitive"},
      {"measurement": "phospho-AKT increase after BCR crosslinking", "setting": "[14]", "result": "completely inhibited"},
      {"measurement": "cell membrane permeability", "setting": "[15]", "result": "moderate"},
      {"measurement": "inhibition of active transport of other P-gp substrates", "setting": "[15]", "result": "has the potential to inhibit the active transport of other P-gp substrates"},
      {"measurement": "doses that increasingly suppress PI3K-γ", "setting": "[16]", "result": "≥ 25", "unit": "mg BID"},
      {"measurement": "reduction in migration of CLL cells, % control reduction, range", "setting": "[17]", "result": "2-42%"},
      {"measurement": "sensitivity in cellular growth inhibition assay", "setting": "[18]", "result": "more sensitive; also recorded: nanomolar (nM) range"},
      {"measurement": "TNF-α production", "setting": "[19]; FIG. 14A", "result": "inhibits"},
      {"measurement": "IL-10 production", "setting": "[19]; FIG. 14B", "result": "inhibits"},
      {"measurement": "Hill coefficient", "setting": "[20]", "result": 1.3}
    ]}
  ]
}
